Experimental data: PubChem BioAssay AID330 (DTP/NCI, 2004)
Several values for one entry are separate records, joined by “and”; a condition that tells them apart may be missing. Equal values may be shown once. Inconclusive results and toxic doses are left out. The calls were made as follows: active = survival T/C of 150% or more; inactive = T/C below 125% in these data.

Tested on: P388 leukemia ip, CD2F1 mice, survival T/C
Assay: NCI In Vivo Anticancer Drug Screen. Data for tumor model P388 Leukemia (intraperitoneal) in CD2F1 (CDF1) mice
Conditions: endpoint: median survival time, higher = longer survival
Outline: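 Mice carrying the transplanted tumor received test compound or vehicle. Survival was recorded in each group, and the value is the treated-group measurement divided by that of the vehicle-treated control group.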

[1] = dose: 50.0 mg/kg/injection, schedule: Q01DX005 (ip), vehicle: saline with Tween-80
[2] = dose: 100.0 mg/kg/injection, schedule: Q01DX005 (ip), vehicle: saline with Tween-80
[3] = dose: 200.0 mg/kg/injection, schedule: Q01DX005 (ip), vehicle: saline with Tween-80

Measured: T/C

CCSc1nc2ccc(Nn3nnnc3-c3ccccc3)cc2s1
inactive: dose: 1.56 mg/kg/injection, schedule: Q01DX009 (ip), vehicle: Klucel (hydroxypropylcellulose) (HPC) 105 % of control and 94 % of control | dose: 3.12 mg/kg/injection, schedule: Q01DX009 (ip), vehicle: Klucel (hydroxypropylcellulose) (HPC) 99 % of control and 100 % of control | dose: 6.25 mg/kg/injection, schedule: Q01DX009 (ip), vehicle: Klucel (hydroxypropylcellulose) (HPC) 93 % of control | dose: 12.5 mg/kg/injection, schedule: Q01DX009 (ip), vehicle: Klucel (hydroxypropylcellulose) (HPC) 89 % of control and 95 % of control | dose: 50.0 mg/kg/injection, schedule: Q01DX009 (ip), vehicle: Klucel (hydroxypropylcellulose) (HPC) 93 % of control | dose: 200.0 mg/kg/injection, schedule: Q01DX009 (ip), vehicle: Klucel (hydroxypropylcellulose) (HPC) 92 % of control

OC1(O)/C=C\CCCCC/C=C\1
inactive: dose: 25.0 mg/kg/injection, schedule: Q01DX005 (ip), vehicle: saline with Tween-80 100 % of control | [1] 101 % of control | [2] 99 % of control and 102 % of control | [3] 105 % of control

CC1(C)N=C(N)N=C(N)N1c1ccccc1
inactive: dose: 25.0 mg/kg/injection, schedule: Q04DX003 (ip), vehicle: saline 104 % of control | dose: 50.0 mg/kg/injection, schedule: Q04DX003 (ip), vehicle: saline 112 % of control

CCCCn1c(Cl)c(/C=N\Nc2ccccc2[N+](=O)[O-])c2ccccc21
inactive: dose: 100.0 mg/kg/injection, schedule: Q01DX001 (ip), vehicle: saline with Tween-80 93 % of control | dose: 200.0 mg/kg/injection, schedule: Q01DX001 (ip), vehicle: saline with Tween-80 90 % of control | dose: 400.0 mg/kg/injection, schedule: Q01DX001 (ip), vehicle: saline with Tween-80 93 % of control

O=C1C(c2ccccc2)=C(c2ccccc2)C2(c3ccccc3)C=NNC12c1ccccc1 (centres undefined)
inactive: dose: 6.25 mg/kg/injection, schedule: Q01DX005 (ip), vehicle: Klucel (hydroxypropylcellulose) (HPC) 95 % of control | dose: 12.5 mg/kg/injection, schedule: Q01DX005 (ip), vehicle: Klucel (hydroxypropylcellulose) (HPC) 92 % of control

Cc1cc(C)n(-c2ccc(-c3cc(=O)c4ccccc4o3)cc2)n1
inactive: [1] 92 % of control | [2] 90 % of control

N[C@@H](CSSc1ccccc1C(=O)O)C(=O)O
inactive: dose: 100.0 mg/kg/injection, schedule: Q04DX002 (ip), vehicle: Klucel (hydroxypropylcellulose) (HPC) 103 % of control | dose: 200.0 mg/kg/injection, schedule: Q04DX002 (ip), vehicle: Klucel (hydroxypropylcellulose) (HPC) 107 % of control | dose: 400.0 mg/kg/injection, schedule: Q04DX002 (ip), vehicle: Klucel (hydroxypropylcellulose) (HPC) 105 % of control

CC1C(=O)OC2C1CCC1(C)CCC(O)C(C)C21 (centres undefined)
inactive: dose: 100.0 mg/kg/injection, schedule: Q04DX002 (ip), vehicle: saline with Tween-80 102 % of control | dose: 200.0 mg/kg/injection, schedule: Q04DX002 (ip), vehicle: saline with Tween-80 99 % of control | dose: 400.0 mg/kg/injection, schedule: Q04DX002 (ip), vehicle: saline with Tween-80 99 % of control

COc1cccc2c1C(=O)c1c(O)c3c(c(O)c1C2=O)C[C@@](O)(C(C)O)C[C@@H]3OC1CC(NCc2ccccc2)C(O)C(C)O1 (some centres undefined)
active: dose: 0.78 mg/kg/injection, schedule: Q01DX009 (ip), vehicle: water 158 % of control | dose: 1.56 mg/kg/injection, schedule: Q01DX009 (ip), vehicle: water 163 % of control | dose: 3.13 mg/kg/injection, schedule: Q01DX009 (ip), vehicle: water 181 % of control and 194 % of control | dose: 6.25 mg/kg/injection, schedule: Q01DX009 (ip), vehicle: water 215 % of control and 226 % of control

CCOC(=O)c1ccc(NC(=O)Nc2ccc(NC(C)=O)cc2)cc1
inactive: dose: 15.0 mg/kg/injection, schedule: Q01DX005 (ip), vehicle: Klucel (hydroxypropylcellulose) (HPC) 95 % of control | dose: 30.0 mg/kg/injection, schedule: Q01DX005 (ip), vehicle: Klucel (hydroxypropylcellulose) (HPC) 96 % of control | dose: 60.0 mg/kg/injection, schedule: Q01DX005 (ip), vehicle: Klucel (hydroxypropylcellulose) (HPC) 87 % of control and 88 % of control and 93 % of control | dose: 120.0 mg/kg/injection, schedule: Q01DX005 (ip), vehicle: Klucel (hydroxypropylcellulose) (HPC) 87 % of control | dose: 240.0 mg/kg/injection, schedule: Q01DX005 (ip), vehicle: Klucel (hydroxypropylcellulose) (HPC) 87 % of control

Nc1nc(Cl)cc2nsnc12
inactive: dose: 100.0 mg/kg/injection, schedule: Q04DX002 (ip), vehicle: saline 97 % of control | dose: 200.0 mg/kg/injection, schedule: Q04DX002 (ip), vehicle: saline 99 % of control | dose: 400.0 mg/kg/injection, schedule: Q04DX002 (ip), vehicle: saline 95 % of control

C=CCNC(=O)C(NC(=O)OCCCC)NC(=O)OCCCC
inactive: [1] 95 % of control | [2] 87 % of control | [3] 87 % of control

CSCCC1NC(=O)C(C(C)=Nc2ccccc2)=C1O (centres undefined)
inactive: dose: 50.0 mg/kg/injection, schedule: Q01DX009 (ip), vehicle: saline with Tween-80 94 % of control | dose: 100.0 mg/kg/injection, schedule: Q01DX009 (ip), vehicle: saline with Tween-80 92 % of control | dose: 200.0 mg/kg/injection, schedule: Q01DX009 (ip), vehicle: saline with Tween-80 98 % of control | dose: 400.0 mg/kg/injection, schedule: Q01DX009 (ip), vehicle: saline with Tween-80 99 % of control
